The values that follow come from patent publication US11339160B2, “Imidazole and triazole containing bicyclic compounds as JAK inhibitors” (THERAVANCE BIOPHARMA R&D IP, LLC, priority 2019, dated 2022).

Molecules are shown by their SMILES.

Chain of JAK3 (P52333 whole entry): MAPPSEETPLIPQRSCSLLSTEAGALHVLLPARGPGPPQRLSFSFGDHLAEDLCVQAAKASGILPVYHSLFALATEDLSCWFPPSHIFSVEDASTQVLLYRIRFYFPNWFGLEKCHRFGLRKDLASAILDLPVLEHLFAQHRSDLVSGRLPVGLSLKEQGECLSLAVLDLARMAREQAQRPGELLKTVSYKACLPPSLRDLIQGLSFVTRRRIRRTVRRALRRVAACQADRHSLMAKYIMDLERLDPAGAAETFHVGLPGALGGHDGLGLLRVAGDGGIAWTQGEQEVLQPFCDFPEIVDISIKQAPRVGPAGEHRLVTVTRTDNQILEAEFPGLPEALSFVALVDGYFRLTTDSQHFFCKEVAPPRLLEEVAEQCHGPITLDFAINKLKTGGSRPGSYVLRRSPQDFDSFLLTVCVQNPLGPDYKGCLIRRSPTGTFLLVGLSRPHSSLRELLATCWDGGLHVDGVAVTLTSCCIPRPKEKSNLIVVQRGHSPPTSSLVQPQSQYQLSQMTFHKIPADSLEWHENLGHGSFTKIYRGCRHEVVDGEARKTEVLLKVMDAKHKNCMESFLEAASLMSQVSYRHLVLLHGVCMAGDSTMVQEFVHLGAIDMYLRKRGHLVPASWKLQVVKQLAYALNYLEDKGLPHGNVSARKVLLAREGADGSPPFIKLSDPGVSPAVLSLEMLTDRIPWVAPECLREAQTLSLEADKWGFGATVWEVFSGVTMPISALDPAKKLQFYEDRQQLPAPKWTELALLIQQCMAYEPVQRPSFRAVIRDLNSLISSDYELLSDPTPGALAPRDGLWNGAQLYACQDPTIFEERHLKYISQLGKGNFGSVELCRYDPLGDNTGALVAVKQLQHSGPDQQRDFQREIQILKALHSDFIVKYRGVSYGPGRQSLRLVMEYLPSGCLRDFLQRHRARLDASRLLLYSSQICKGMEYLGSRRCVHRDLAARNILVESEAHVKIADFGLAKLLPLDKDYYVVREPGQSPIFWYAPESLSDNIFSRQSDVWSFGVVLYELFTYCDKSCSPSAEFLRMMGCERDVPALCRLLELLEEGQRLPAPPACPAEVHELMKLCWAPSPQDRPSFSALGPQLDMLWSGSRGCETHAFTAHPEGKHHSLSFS

The assay has as its target JAK3 (Homo sapiens (Human), UniProt P52333). Kind of assay: Biochemical JAK3 kinase assay (LanthaScreen). Conditions: selectivity, difference of pKi values. Here is the method:
Assay 1: Biochemical JAK and Tyk2 Kinase Assays
A panel of four LanthaScreen JAK biochemical assays (JAK1, 2, 3 and Tyk2) were carried in a common kinase reaction buffer (50 mM HEPES, pH 7.5, 0.01% Brij-35, 10 mM MgCl2, and 1 mM EGTA). Recombinant GST-tagged JAK enzymes and a GFP-tagged STAT1 peptide substrate were obtained from Life Technologies.
Serially or discretely diluted compounds were pre-incubated with each of the four JAK enzymes and the substrate in white 384-well microplates (Corning) at ambient temperature for 1 h. ATP was subsequently added to initiate the kinase reactions in 10 μL total volume, with 1% DMSO. […] Kinase reactions were allowed to proceed for 1 hour at ambient temperature before a 10 μL preparation of EDTA (10 mM final concentration) and Tb-anti-pSTAT1 (pTyr701) antibody (Life Technologies, 2 nM final concentration) in TR-FRET dilution buffer (Life Technologies) was added. The plates were allowed to incubate at ambient temperature for 1 h before being read on the EnVision reader (Perkin Elmer). Emission ratio signals (520 nm/495 nm) were recorded and utilized to calculate the percent inhibition values based on DMSO and background controls.
For dose-response analysis, percent inhibition data were plotted vs. compound concentrations, and IC50 values were determined from a 4-parameter robust fit model with the Prism software (GraphPad Software). Results were expressed as pIC50 (negative logarithm of IC50) and subsequently converted to pKi (negative logarithm of dissociation constant, Ki) using the Cheng-Prusoff equation.
(TR-FRET usually uses a lanthanide donor and a delayed reading to cut background.)
Consider `C=CC(=O)N1CC[C@H](Oc2cc(-c3ccc(O)cc3)cn3cncc23)C1` [Example 1, (S)-1-(3-((6-(4-hydroxyphenyl)imidazo[1,5-a]pyridin-8-yl)oxy)pyrrolidin-1-yl)prop-2-en-1-one], for which the “JAK3 (pKi)-JAK1 (pKi)” value is “A (a value of 3 or above)”.
Then `C=CC(=O)N1CCC(COc2cc(-c3ccc(O)cc3)cn3cncc23)CC1` [Example 2, 1-(4-(((6-(4-hydroxyphenyl)imidazo[1,5-a]pyridin-8-yl)oxy)methyl)piperidin-1-yl)prop-2-en-1-one], with “A (a value of 3 or above)”.
Then `C=CC(=O)N1CC2(CCC2Oc2cc(-c3ccc(O)cc3)cn3cncc23)C1` (centres unmarked) [Example 3, 1-(5-((6-(4-hydroxyphenyl)imidazo[1,5-a]pyridin-8-yl)oxy)-2-azaspiro[3.3]heptan-2-yl)prop-2-en-1-one], with “A (a value of 3 or above)”.
As for `C=CC(=O)N1CCC(Nc2cc(-c3ccc(O)cc3)cn3cncc23)CC1` [Example 4, 1-(4-((6-(4-hydroxyphenyl)imidazo[1,5-a]pyridin-8-yl)amino)piperidin-1-yl)prop-2-en-1-one], the “JAK3 (pKi)-JAK1 (pKi)” value is “B (a value of 2.3 to 3)”.
The same measure for `C=CC(=O)N1CC(COc2cc(-c3ccc(O)cc3)cn3cnnc23)C1` [Example 5, 1-(3-(((6-(4-hydroxyphenyl)-[1,2,4]triazolo[4,3-a]pyridin-8-yl)oxy)methyl)azetidin-1-yl)prop-2-en-1-one]: “A (a value of 3 or above)”; for `C=CC(=O)N1CC(COc2nc(-c3ccc(O)cc3)cn3cncc23)C1` [Example 6, 1-(3-(((6-(4-hydroxyphenyl)imidazo[1,5-a]pyrazin-8-yl)oxy)methyl)azetidin-1-yl)prop-2-en-1-one]: “A (a value of 3 or above)”; for `C=CC(=O)N1CCC(Oc2cc(-c3ccc(O)cc3)cn3cncc23)C(F)(F)C1` (centres unmarked) [Example 14, 1-(3,3-difluoro-4-((6-(4-hydroxyphenyl)imidazo[1,5-a]pyridin-8-yl)oxy)piperidin-1-yl)prop-2-en-1-one]: “A (a value of 3 or above)”.
Then `C=CC(=O)N1CCC[C@H](Oc2cc(-c3cc(F)c(O)cc3CC)cn3cncc23)C1` [Example 16], with “B (a value of 2.3 to 3)”; and `CCc1cc(O)c(F)cc1-c1cc(O[C@H]2CCCN(C(=O)/C=C/CN(C)C)C2)c2cncn2c1` [Example 18], with “B (a value of 2.3 to 3)”; and `CN(C)C/C=C/C(=O)N1CC(COc2cc(-c3ccc(O)cc3)cn3cncc23)C1` [Example 19], with “A (a value of 3 or above)”.
With `C=CC(=O)N1CC(COc2cc(-c3ccc(O)cc3CC)cn3cncc23)C1` [Example 21], the “JAK3 (pKi)-JAK1 (pKi)” value was “A (a value of 3 or above)”.
As for `CN(C)C/C=C/C(=O)N1CC(COc2cc(-c3ccc(O)c(F)c3)cn3cncc23)C1` [Example 22], the “JAK3 (pKi)-JAK1 (pKi)” value was “A (a value of 3 or above)”.
Then `CN(C)C/C=C/C(=O)N1CC(COc2cc(-c3ccc(O)c(Cl)c3)cn3cncc23)C1` [Example 23], with “A (a value of 3 or above)”.
Regarding `CCc1cc(O)ccc1-c1cc(OCC2CN(C(=O)/C=C/CN(C)C)C2)c2cncn2c1` [Example 25], the “JAK3 (pKi)-JAK1 (pKi)” value is “A (a value of 3 or above)”.
In the case of `C=CC(=O)N1CC[C@H](COc2cc(-c3ccc(O)cc3)cn3cncc23)C1` [Example 26], the “JAK3 (pKi)-JAK1 (pKi)” value was “A (a value of 3 or above)”.
In the case of `C=CC(=O)N1CCC[C@H](Oc2cc(-c3ccc(O)cc3)cn3cncc23)C1` [Example 27], the “JAK3 (pKi)-JAK1 (pKi)” value is recorded as “A (a value of 3 or above)”.
Take `C=CC(=O)N1CC(CSc2cc(-c3ccc(O)cc3)cn3cncc23)C1` [Example 29]: the “JAK3 (pKi)-JAK1 (pKi)” value was “A (a value of 3 or above)”.
For the molecule `C=CC(=O)N1CCC(Oc2cc(-c3ccc(O)cc3)cn3cncc23)CC1` [Example 30], the “JAK3 (pKi)-JAK1 (pKi)” value is reported as “A (a value of 3 or above)”.
The same measure for `C=CC(=O)N1CC(COc2cc(-c3cc(F)c(O)c(F)c3)cn3cncc23)C1` [Example 32]: “A (a value of 3 or above)”.
Then `C=CC(=O)N1CC(COc2cc(-c3cc(Cl)c(O)c(Cl)c3)cn3cncc23)C1` [Example 33], with “A (a value of 3 or above)”; and `C=CC(=O)N1CC(COc2cc(-c3cc(C)c(O)c(C)c3)cn3cncc23)C1` [Example 35], with “A (a value of 3 or above)”.
On to `C=CC(=O)N1[C@@H]2CC[C@H]1C[C@@H](Oc1cc(-c3ccc(O)cc3)cn3cncc13)C2` [Example 36], for which the “JAK3 (pKi)-JAK1 (pKi)” value is reported as “A (a value of 3 or above)”.
On to `C=CC(=O)N1CC2(CC(Oc3cc(-c4ccc(O)cc4)cn4cncc34)C2)C1` [Example 37], for which the “JAK3 (pKi)-JAK1 (pKi)” value is listed as “A (a value of 3 or above)”.
Consider `C=CC(=O)N1CC[C@H](Oc2cc(-c3ccc(O)cc3)cn3cncc23)C[C@@H]1C` [Example 38], for which the “JAK3 (pKi)-JAK1 (pKi)” value is “A (a value of 3 or above)”.
On to `C=CC(=O)N1CC[C@@H](Oc2cc(-c3ccc(O)cc3)cn3cncc23)C[C@@H]1C` [Example 39], for which the “JAK3 (pKi)-JAK1 (pKi)” value was “A (a value of 3 or above)”.
The same measure for `C=CC(=O)N1[C@H](C)C[C@H](Oc2cc(-c3ccc(O)cc3)cn3cncc23)C[C@@H]1C` [Example 40]: “B (a value of 2.3 to 3)”.
`C=CC(=O)N1CC[C@@H](Oc2cc(-c3ccc(O)cc3)cn3cncc23)[C@@H](C)C1` [Example 41]: the “JAK3 (pKi)-JAK1 (pKi)” value is reported as “A (a value of 3 or above)”.
For `C=CC(=O)N1CC(COc2cc(-c3ccc(O)cc3C(F)(F)F)cn3cncc23)C1` [Example 42], the “JAK3 (pKi)-JAK1 (pKi)” value was “A (a value of 3 or above)”.
On to `C=CC(=O)N1CC(COc2cc(-c3cc(C)c(O)cc3C)cn3cncc23)C1` [Example 43], for which the “JAK3 (pKi)-JAK1 (pKi)” value is “A (a value of 3 or above)”.
The same measure for `C=CC(=O)N1CC(COc2cc(-c3ccc(O)cc3C)cn3cncc23)C1` [Example 44]: “A (a value of 3 or above)”; for `C=CC(=O)N1CC(COc2cc(-c3ccc(O)cc3OC)cn3cncc23)C1` [Example 45]: “A (a value of 3 or above)”.
Consider `C=CC(=O)N1CC2(CCC2Oc2cc(-c3cc(F)c(O)cc3CC)cn3cncc23)C1` (centres unmarked) [Example 46], for which the “JAK3 (pKi)-JAK1 (pKi)” value was “B (a value of 2.3 to 3)”.
With `C=CC(=O)N1CCC(Oc2cc(-c3cc(F)c(O)cc3CC)cn3cncc23)CC1` [Example 47], the “JAK3 (pKi)-JAK1 (pKi)” value was “B (a value of 2.3 to 3)”.
Then `C=CC(=O)N1[C@@H]2CC[C@H]1C[C@H](Oc1cc(-c3cc(F)c(O)cc3CC)cn3cncc13)C2` [Example 48], with “A (a value of 3 or above)”; and `C=CC(=O)N1CCC(Oc2cc(-c3cc(F)c(O)cc3CC)cn3cncc23)C(F)(F)C1` (centres unmarked) [Example 49], with “C (a value of 1.8 to 2.3)”; and `C=CC(=O)N1[C@@H]2CC[C@H]1C[C@H](Nc1cc(-c3ccc(O)cc3)cn3cncc13)C2` [Example 50], with “B (a value of 2.3 to 3)”.
Then `C=CC(=O)N1CCC[C@H](Nc2cc(-c3ccc(O)cc3)cn3cncc23)C1` [Example 51], with “B (a value of 2.3 to 3)”.
The same measure for `C=CC(=O)N1CC(CNc2cc(-c3ccc(O)cc3)cn3cncc23)C1` [Example 52]: “B (a value of 2.3 to 3)”.
